Data as given in the NIST ThermoML archive (doi:10.1021/je4004965).
± gives the expanded uncertainty stated by the source.

Legend:
[1] = 101.33 kPa, Liquid; for speed of sound: Pulse-echo method; for mass density: Vibrating tube method
[2] = molar heat capacity at constant pressure; settings: 101.33 kPa, Liquid, Small sample (50 mg) DSC

Structure (SMILES) | speed of sound ([1]; 293.15 K) [m/s] | mass density ([1]; 293.15 K) [kg/m3] | speed of sound ([1]; 298.15 K) [m/s] | mass density ([1]; 298.15 K) [kg/m3] | speed of sound ([1]; 303.15 K) [m/s] | mass density ([1]; 303.15 K) [kg/m3] | speed of sound ([1]; 308.15 K) [m/s] | mass density ([1]; 308.15 K) [kg/m3] | molar heat capacity at constant pressure ([2]; 293.15 K) [J/K/mol] | molar heat capacity at constant pressure ([2]; 298.15 K) [J/K/mol] | molar heat capacity at constant pressure ([2]; 303.15 K) [J/K/mol] | molar heat capacity at constant pressure ([2]; 308.15 K) [J/K/mol]
CCn1cc[n+](C)c1.F[B-](F)(F)F [1-ethyl-3-methylimidazolium tetrafluoroborate] | 1631.1 ± 2.2 | 1283.89 ± 1.7 | 1619.4 ± 2.1 | 1279.91 ± 1.7 | 1607.6 ± 2.1 | 1276.26 ± 1.7 | 1596.3 ± 2.1 | 1272.07 ± 1.7 | 303.73 ± 4.7 | 305.35 ± 4.7 | 306.16 ± 4.7 | 308.94 ± 4.8
Cc1ccccc1N [2-methylaniline] | 1622.2 ± 1.3 | 998.431 ± 1 | 1602.3 ± 1.3 | 994.358 ± 1 | 1577.7 ± 1.3 | 990.23 ± 1 | 1558.2 ± 1.3 | 986.064 ± 1 | 215.96 ± 3.4 | 217.16 ± 3.4 | 218.43 ± 3.4 | 219.52 ± 3.4
Cc1ccccn1 [2-methylpyridine] | 1400.5 ± 2.1 | 944.401 ± 1.2 | 1380.1 ± 2.1 | 939.802 ± 1.2 | 1361 ± 2.1 | 935.117 ± 1.2 | 1339.9 ± 2.1 | 930.414 ± 1.2 | 157.07 ± 2.4 | 158.86 ± 2.5 | 160.14 ± 2.5 | 160.66 ± 2.5
Cc1cccnc1 [3-methylpyridine] | 1445.9 ± 1.2 | 956.581 ± 1 | 1424 ± 1.2 | 952.002 ± 1 | 1404.1 ± 1.2 | 947.449 ± 1 | 1384 ± 1.2 | 942.831 ± 1 | 156.05 ± 2.4 | 158.75 ± 2.5 | 160.83 ± 2.5 | 160.96 ± 2.5
Cc1ccncc1 [4-methylpyridine] | 1451.1 ± 1.2 | 955.099 ± 1 | 1431.5 ± 1.2 | 950.179 ± 1 | 1410.7 ± 1.2 | 945.413 ± 1 | 1389.9 ± 1.2 | 940.821 ± 1 | 155.88 ± 2.4 | 158.52 ± 2.5 | 160.84 ± 2.5 | 160.83 ± 2.5
c1ccncc1 [pyridine] | 1442 ± 1.2 | 983.191 ± 1 | 1417.8 ± 1.2 | 978.249 ± 1 | 1398 ± 1.2 | 973.224 ± 1 | 1377.1 ± 1.2 | 968.166 ± 1 | 130.49 ± 2 | 131.74 ± 2 | 132.71 ± 2.1 | 133.82 ± 2.1
